One molecule from patent US9409880B2, “Modulators of TLR3/dsRNA complex and uses thereof” (The Regents of the University of Colorado, a body corporate, priority 2011, dated 2016) can be followed below.

The target of experiment [1] is T1, TLR3 (Mus musculus, UniProt Q99MB1).
T1 construct: endogenous in cells; host or cells: RAW 264.7
T1 sequence (Q99MB1 26-905): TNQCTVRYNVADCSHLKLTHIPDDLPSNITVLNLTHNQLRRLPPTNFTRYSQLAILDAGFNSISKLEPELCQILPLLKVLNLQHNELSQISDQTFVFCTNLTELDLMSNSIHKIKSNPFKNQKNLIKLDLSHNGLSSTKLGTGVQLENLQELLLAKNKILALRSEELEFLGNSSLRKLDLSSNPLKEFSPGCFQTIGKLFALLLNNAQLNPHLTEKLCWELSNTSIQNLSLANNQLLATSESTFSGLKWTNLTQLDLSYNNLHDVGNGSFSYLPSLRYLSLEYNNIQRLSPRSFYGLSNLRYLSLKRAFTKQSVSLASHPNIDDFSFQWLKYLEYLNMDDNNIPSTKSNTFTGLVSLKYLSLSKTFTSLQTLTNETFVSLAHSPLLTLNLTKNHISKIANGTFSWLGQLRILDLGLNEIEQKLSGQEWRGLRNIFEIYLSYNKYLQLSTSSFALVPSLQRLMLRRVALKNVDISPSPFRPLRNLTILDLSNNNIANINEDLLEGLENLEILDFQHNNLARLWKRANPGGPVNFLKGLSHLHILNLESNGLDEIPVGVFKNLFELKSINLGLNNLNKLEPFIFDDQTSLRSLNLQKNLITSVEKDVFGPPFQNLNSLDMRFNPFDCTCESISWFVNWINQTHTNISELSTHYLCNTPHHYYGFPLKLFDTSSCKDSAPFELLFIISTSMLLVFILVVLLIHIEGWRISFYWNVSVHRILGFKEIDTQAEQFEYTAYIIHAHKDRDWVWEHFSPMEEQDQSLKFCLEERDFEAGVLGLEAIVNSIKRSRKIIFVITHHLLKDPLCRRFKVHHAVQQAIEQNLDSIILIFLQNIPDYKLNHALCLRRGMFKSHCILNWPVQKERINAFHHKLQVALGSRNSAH
The experiment in a line: In vitro TLR3 inhibition assay: Poly IC-induced NO production in RAW 264.7 cells. Type of experiment: cell-based. The text has this: The initial hits (Figure A) were first evaluated using the present inventors' previously established high-throughput cell assay of TLR3 activation. See, for example, ACS Med. Chem. Lett. 2010, 1, 194 and Bioorg. Med. Chem. Lett., 2010, 20, 5411. Poly IC (Polyriboinosinic:polyribocytidylic acid) has been reported to selectively activate TLR3 signaling, resulting in the activation of nitric oxide synthase and the production nitric oxide (NO) in RAW 264.7 macrophage cells. The NO level was monitored as an indicator of Poly IC-induced TLR3 activation to evaluate the drug's inhibitory activity.
RAW 264.7 (Mouse leukaemic monocyte macrophage cell line) cells were grown in RPMI 1640 medium, supplemented with 10% FBS, penicillin (100 U/mL) and streptomycin ([…]). RAW cells were then planted in 96-well plates at 100,000 cells per well and grown for 24 h in the media descried previously at 37° C. in a 5% CO2 humidified incubator. After 24 h, non-adherent cells and media were removed and replaced with fresh RPMI 1640 medium (only RPMI). The adherent macrophages were treated with high molecular weight polyinosine-polycytidylic acid (Poly IC) (10 μg/mL) (Invivogen), an agonist of TLR3, and then added different concentrates of potential inhibitor. Two rows were only treated with Poly IC as an control. Plates were then incubated for an additional 24 h. Following incubation 100 μL of media was removed and added to flat black 96-well microfluor plates (Thermo Scientific, MA, USA). To each well, 10 μL of 2,3-diaminonaphthalene (0.05 mg/mL in 0.62 M aqueous HCl solution) was added and incubated for 15 min in the dark. The reaction was quenched by addition of 5 μL of a 3 M aqueous NaOH solution and the plate was read on Beckman Coulter DTX880 reader (Beckman Coulter, Calif., USA) with excitation at 365 nm and emission at 450 nm. The nitrite (a stable metabolite of nitric oxide) concentration was determined from a nitrite standard curve. The inhibition rate (%) of NO release was determined using the following formula: Inhibition (%)=[Poly IC(OD450)−Compounds (OD450)]/[Poly IC(OD450)−Control (OD450)]×100. The IC50 values for both inhibition and cytotoxicity were determined graphically using software Origin v7.5.

In experiment [2] the target is T2, TLR4 (Mus musculus, UniProt Q9QUK6).
T2 construct: endogenous in cells; host or cells: RAW 264.7
T2 sequence (Q9QUK6 26-835): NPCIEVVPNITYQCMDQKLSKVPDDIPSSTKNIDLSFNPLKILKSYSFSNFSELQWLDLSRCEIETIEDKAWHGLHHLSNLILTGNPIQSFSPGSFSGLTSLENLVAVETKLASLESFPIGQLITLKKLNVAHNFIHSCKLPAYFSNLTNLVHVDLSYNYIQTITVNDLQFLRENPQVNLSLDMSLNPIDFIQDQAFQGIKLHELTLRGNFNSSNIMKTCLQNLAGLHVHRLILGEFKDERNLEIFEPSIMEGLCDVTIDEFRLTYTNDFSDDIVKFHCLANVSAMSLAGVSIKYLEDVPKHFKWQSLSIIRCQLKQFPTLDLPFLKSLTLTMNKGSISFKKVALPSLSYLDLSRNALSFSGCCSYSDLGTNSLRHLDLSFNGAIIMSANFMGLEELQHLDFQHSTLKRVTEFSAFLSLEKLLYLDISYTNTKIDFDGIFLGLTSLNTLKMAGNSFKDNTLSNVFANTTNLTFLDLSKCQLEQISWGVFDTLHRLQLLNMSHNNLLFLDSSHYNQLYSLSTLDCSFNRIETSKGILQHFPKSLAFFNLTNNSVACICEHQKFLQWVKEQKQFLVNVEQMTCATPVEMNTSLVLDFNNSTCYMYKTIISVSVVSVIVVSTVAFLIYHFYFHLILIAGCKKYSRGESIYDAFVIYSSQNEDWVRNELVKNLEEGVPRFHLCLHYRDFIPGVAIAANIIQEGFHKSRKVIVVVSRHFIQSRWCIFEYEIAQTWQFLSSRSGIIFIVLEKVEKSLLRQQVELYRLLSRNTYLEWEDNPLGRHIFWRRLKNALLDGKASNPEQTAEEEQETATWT
T2 sequence (Q9JHF9 19-160 partner): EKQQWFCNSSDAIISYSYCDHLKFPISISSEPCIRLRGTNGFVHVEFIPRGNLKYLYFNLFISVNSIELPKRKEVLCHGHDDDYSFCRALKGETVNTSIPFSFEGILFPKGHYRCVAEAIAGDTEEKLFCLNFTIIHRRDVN
The experiment in a line: RAW264.7 cell nitric oxide TLR selectivity assay (LPS). Type of experiment: cell-based. The conditions noted are these: 27 μM.

The subject of experiment [3] is MCP-1. The experiment in a line: In vivo poly IC-induced serum MCP-1 in wild-type mice. Conditions: pretreatment 30 minutes prior to 100 μg poly IC i.v., serum 4 hours after. As for the experimental part: Wild-type mice were treated with a single 100 μg of poly IC i.v. injection and the serum concentration of MCP-1 was investigated 4 hours after the treatment. […] Pretreatment with compound 4a at various concentrations 30 minutes prior to poly I:C application decreased MCP-1 production by about 50%.

For the molecule `O=C(N[C@H](Cc1ccccc1)C(=O)O)c1sc2cc(F)ccc2c1Cl` [Compound 4a, (R)-2-(3-chloro-6-fluorobenzo[b]thiophene-2-carboxamido)-3-phenylpropanoic acid], the “TLR3 signaling in specificity test” value in experiment [1] (27 μM, Poly IC) was “selectively inhibited TLR3 signaling”. Also, the “increase in potency compared to T5626448” value in experiment [1] (4a vs T5626448) is about 45 fold. Also, in experiment [1] (Poly IC-induced TLR3 activation, cell assay), it took 3.44 ± 0.41 µM to reach half-maximal inhibition (IC50). The “effect on TLR4 signaling” value in experiment [2] is “without significantly affecting other TLRs”. Also, in experiment [3], the “decrease of MCP-1 production” value is given as “about 50%”.

In general, IC50 refers to the point on the concentration scale where inhibition reaches its midpoint. Read a high IC50 as a need for much substance.
